Experimental data from US9266881B2, “Triazolopyridinone PDE10 inhibitors” (Merck Sharp & Dohme Corp., priority 2011, dated 2016).
pKi: −log10 of the molar value. Read-outs that look alike come from different tables or passages of the source.

Target: human PDE10A2 (Homo sapiens (Human), UniProt Q9Y233)
Experiment: PDE10 fluorescence polarization (IMAP FP) inhibition assay
Assay type: biochemical
Experimental: The activity of the compounds in accordance with the present invention as PDE10 inhibitors may be readily determined without undue experimentation using a fluorescence polarization (FP) methodology that is well known in the art (Huang, W., et al., J. Biomol Screen, 2002, 7: 215).
In a typical experiment the PDE10 inhibitory activity of the compounds of the present invention was determined in accordance with the following experimental method. PDE10A2 was amplified from human fetal brain cDNA (Clontech, Mountain View, Calif.) using a forward primer corresponding to nucleotides 56-77 of human PDE10A2 (Accession No. AF127480, Genbank Identifier 4894716), containing a Kozak consensus sequence, and a reverse primer corresponding to nucleotides 2406-2413 of human PDE10A2 (Accession No. AF127480, Genbank Identifier 4894716). Amplification with Easy-A polymerase (Stratagene, La Jolla, Calif.) was 95° C. for 2 minutes followed by thirty three cycles of 95° C. for 40 seconds, 55° C. for 30 seconds, and 72° C. for 2 minutes 48 seconds. Final extension was 72° C. for 7 minutes. The PCR product was TA cloned into pcDNA3.2-TOPO (Invitrogen, Carlsbad, Calif.) according to standard protocol. AD293 cells with 70-80% confluency were transiently transfected with human PDE10A2/pcDNA3.2-TOPO using Lipofectamine 2000 according to manufacturer specifications (Invitrogen, Carlsbad, Calif.). Cells were harvested 48 hours post-transfection and lysed by sonication (setting 3, 10×5 sec pulses) in a buffer containing 20 mM HEPES, 1 mM EDTA and protease inhibitor cocktail (Roche). Lysate was collected by centrifugation at 75,000×g for 20 minutes. Supernatant containing the cytoplasmic fraction was used for evaluation of PDE10A2 activity. The fluorescence polarization assay for cyclic nucleotide phosphodiesterases was performed using an IMAP® FP kit supplied by Molecular Devices, Sunnyvale, Calif. (product #R8139). IMAP® technology has been applied previously to phosphodiesterase assays (Huang, W., et al., J. Biomol Screen, 2002, 7: 215). Assays were performed at room temperature in 384-well microtiter plates with an incubation volume of 20.2 μl. Solutions of test compounds were prepared in DMSO and serially diluted with DMSO to yield 8 μL of each of 10 solutions differing by 3-fold in concentration, at 32 serial dilutions per plate. 100% inhibition is determined using a known PDE10 inhibitor, which can be any compound that is present at 5,000 times its Ki value in the assay described as follows, such as papaverine (see Siuciak, et al. Neuropharmacology (2006) 51:386-396; Becker, et al. Behav Brain Res (2008) 186(2):155-60; Threlfell, et al., J Pharmacol Exp Ther (2009) 328(3):785-795), 2-{4-[pyridin-4-yl-1-(2,2,2-trifluoroethyl)-1H-pyrazol-3-yl]phenoxymethyl}quinoline succinic acid or 2-[4-(1-methyl-4-pyridin-4-yl-1H-pyrazol-3-yl)-phenoxymethyl]quinoline succinic acid (see Schmidt, et al. J Pharmacol Exp Ther (2008) 325:681-690; Threlfell, et al., J Pharmacol Exp Ther (2009) 328(3): 785-795). 0% of inhibition is determined by using DMSO (1% final concentrations).
A Labcyte Echo 555 (Labcyte, Sunnyvale, Calif.) is used to dispense 200 nL from each well of the titration plate to the 384 well assay plate. A solution of enzyme (1/1600 dilution from aliquots; sufficient to produce 20% substrate conversion) and a separate solution of FAM-labeled cAMP PDE from Molecular Devices (product #R7506), at a final concentration of 50 nM are made in the assay buffer (10 mM Tris HCl, pH 7.2, 10 mM MgCl2, 0.05% NaN3 0.01% Tween-20, and 1 mM DTT). The enzyme and the substrate are then added to the assay plates in two consecutive additions of 10 μL, and then shaken to mix. The reaction is allowed to proceed at room temperature for 30 minutes. A binding solution is then made from the kit components, comprised of 80% Solution A, 20% Solution B and binding reagent at a volume of 1/600 the total binding solution. […]

[1] = human PDE10A2 lysate, IMAP FP, 50 nM FAM-labeled cAMP, room temperature, read-out: PDE10A Ki
[2] = human PDE10 enzyme, aforementioned assays, read-out: Ki for inhibiting the human PDE10 enzyme (range given)

human PDE10A2, sequence (Q9Y233 267-1055): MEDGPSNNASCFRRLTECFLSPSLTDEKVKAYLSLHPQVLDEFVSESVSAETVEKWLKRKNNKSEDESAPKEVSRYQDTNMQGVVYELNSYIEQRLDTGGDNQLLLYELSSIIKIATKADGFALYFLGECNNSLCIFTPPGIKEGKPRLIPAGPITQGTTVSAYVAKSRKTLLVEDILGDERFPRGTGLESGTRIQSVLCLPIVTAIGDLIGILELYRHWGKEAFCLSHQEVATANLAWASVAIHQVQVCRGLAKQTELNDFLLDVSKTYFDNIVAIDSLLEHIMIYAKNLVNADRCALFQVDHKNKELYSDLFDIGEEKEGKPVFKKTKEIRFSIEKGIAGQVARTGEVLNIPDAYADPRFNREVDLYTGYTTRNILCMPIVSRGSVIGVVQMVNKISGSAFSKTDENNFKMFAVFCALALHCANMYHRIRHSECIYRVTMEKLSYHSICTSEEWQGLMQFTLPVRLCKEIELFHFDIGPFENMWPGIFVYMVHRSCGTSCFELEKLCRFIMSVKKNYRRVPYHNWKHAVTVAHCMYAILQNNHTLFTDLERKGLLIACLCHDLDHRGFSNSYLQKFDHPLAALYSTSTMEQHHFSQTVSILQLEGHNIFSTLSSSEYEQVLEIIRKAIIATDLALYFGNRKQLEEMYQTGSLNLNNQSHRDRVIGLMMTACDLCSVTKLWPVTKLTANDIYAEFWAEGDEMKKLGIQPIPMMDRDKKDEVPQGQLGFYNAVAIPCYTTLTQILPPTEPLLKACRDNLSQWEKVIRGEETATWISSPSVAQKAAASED

| Compound | pKi [1] | pKi [2] |
| --- | --- | --- |
| Cc1ccc(-c2cccc3nn(CCc4ccc5ccccc5n4)c(=O)n23)cc1 [Compound A-3, 5-(4-methylphenyl)-2-(2-quinolin-2-ylethyl)[1,2,4]triazolo[4,3-a]pyridin-3(2H)-one] | 7.77 |  |
| O=C(Nc1cccnc1)c1cccc2nn(CCc3ccc4ccccc4n3)c(=O)n12 [Compound 8-2, 3-oxo-N-pyridin-3-yl-2-(2-quinolin-2-ylethyl)-2,3-dihydro[1,2,4]triazolo[4,3-a]pyridine-5-carboxamide] | 7.01 |  |
| O=c1n(CCc2ccc3ccccc3n2)nc2cccc(N3CCCCC3)n12 [Compound A-6, 5-piperidin-1-yl-2-(2-quinolin-2-ylethyl)[1,2,4]triazolo[4,3-a]pyridin-3(2H)-one] | 7.72 |  |
| O=c1n(CCc2ccc3ccccc3n2)nc2cccc(-c3cccnc3)n12 [Compound A-1, 5-pyridin-3-yl-2-(2-quinolin-2-ylethyl)[1,2,4]triazolo[4,3-a]pyridin-3(2H)-one] | 8.05 | 8.00 to 10.00 |
| Cn1cc(-c2ccccc2)nc1CCn1nc2cccc(-c3ccncc3)n2c1=O [Compound B-1, 2-[2-(1-methyl-4-phenyl-1H-imidazol-2-yl)ethyl]-5-pyridin-4-yl[1,2,4]triazolo[4,3-a]pyridin-3(2H)-one] | 8.70 | 8.00 to 10.00 |
| COc1ccc(C(C)(O)c2cccc3nn(CCc4ccc5ccccc5n4)c(=O)n23)cc1 (stereo not shown) [Compound 7-2, 5-[1-hydroxy-1-(4-methoxyphenyl)ethyl]-2-(2 - quinolin-2-ylethyl)[1,2,4]triazolo[4,3-a]pyridin-3(2H)-one] | 7.96 |  |
| O=c1n(CCc2ccc3ccccc3n2)nc2c(-c3ncco3)cccn12 [Compound 4-1, 8-(1,3-oxazol-2-yl)-2-(2-quinolin-2-ylethyl)[1,2,4]triazolo[4,3-a]pyridin-3(2H)-one] | 7.66 |  |
| Cn1cc(-c2ccccc2)nc1CCn1nc2cccc(N3CCOCC3)n2c1=O [Compound 12-1, 2-[2-(1-methyl-4-phenyl-1H-imidazol-2-yl)ethyl]-5-morpholin-4-yl[1,2,4]triazolo[4,3-a]pyridin-3(2H)-one] | 9.39 | 8.00 to 10.00 |
| Cn1cc(-c2ccccc2)nc1CCn1nc2cccc(Br)n2c1=O [Compound 11-4, 5-bromo-2-[2-(1-methyl-4-phenyl-1H-imidazol-2-yl)ethyl][1,2,4]triazolo[4,3-a]pyridin-3(2H)-one] | 8.14 | 8.00 to 10.00 |
| O=c1n(CCc2ccc3ccccc3n2)nc2cccc(Br)n12 [Compound 2-4, 5-bromo-2-(2-quinolin-2-ylethyl)[1,2,4]triazolo[4,3-a]pyridin-3(2H)-one] | 7.23 |  |
| O=c1n(CCc2ccc3ccccc3n2)nc2cccc(N3CCOCC3)n12 [Compound 6-1, 5-morpholin-4-yl-2-(2-quinolin-2-ylethyl)[1,2,4]triazolo[4,3-a]pyridin-3(2H)-one] | 8.60 | 8.00 to 10.00 |
| O=c1n(CCc2ccc3ccccc3n2)nc2cccc(-c3ccccc3)n12 [Compound A-5, 5-phenyl-2-(2-quinolin-2-ylethyl)[1,2,4]triazolo[4,3-a]pyridin-3(2H)-one] | 7.70 |  |
| Cc1cccn2c(=O)n(CCc3ccc4ccccc4n3)nc12 [Compound A-2, 8-methyl-2-(2-quinolin-2-ylethyl)[1,2,4]triazolo[4,3-a]pyridin-3(2H)-one] | 7.13 |  |
| O=c1n(CCc2ccc3ccccc3n2)nc2ccc(Br)cn12 [Compound 3-4, 6-bromo-2-(2-quinolin-2-ylethyl)[1,2,4]triazolo[4,3-a]pyridin-3(2H)-one] | 6.81 |  |
| O=c1n(CCc2ccc3ccccc3n2)nc2cccc(NCc3cccnc3)n12 [Compound A-7, 5-[(pyridin-3-ylmethyl)amino]-2-(2-quinolin-2-ylethyl)[1,2,4]triazolo[4,3-a]pyridin-3(2H)-one] | 7.92 |  |
| CC(C)(O)c1cccc2nn(CCc3ccc4ccccc4n3)c(=O)n12 [Compound A-8, 5-(1-hydroxy-1-methylethyl)-2-(2-quinolin-2-ylethyl)[1,2,4]triazolo[4,3-a]pyridin-3(2H)-one] | 7.14 |  |
| O=c1n(CCc2ccc3ccccc3n2)nc2c(Br)cccn12 [Compound 1-6] | 7.43 |  |
| O=c1n(C[C@@H]2C[C@H]2c2ccccn2)nc2cccc(N3CCOCC3)n12 [Compound 13-6, 5-morpholino-2-(((1R,2R)-2-(pyridin-2-yl)cyclopropyl)methyl)-[1,2,4]triazolo[4,3-a]pyridin-3(2H)-one] | 6.26 |  |
| O=c1n(CCc2ccc3ncccc3n2)nc2c(-c3ccncc3)cccn12 [Compound 10-4, 2-[2-(1,5-naphthyridin-2-yl)ethyl]-8-pyridin-4-yl[1,2,4]triazolo[4,3-a]pyridin-3(2H)-one] | 6.99 |  |
| O=c1n(CCc2ccc3ccccc3n2)nc2cccc(-c3cncs3)n12 [Compound A-4, 2-(2-quinolin-2-ylethyl)-5-(1,3-thiazol-5-yl)[1,2,4]triazolo[4,3-a]pyridin-3(2H)-one] | 7.64 |  |
| O=c1n(CCc2ccc3ccccc3n2)nc2ccc(-c3cccnc3)cn12 [Compound 9-1, 6-pyridin-3-yl-2-(2-quinolin-2-ylethyl)[1,2,4]triazolo[4,3-a]pyridin-3(2H)-one] | 6.29 |  |
| O=c1n(CCc2ccc3ccccc3n2)nc2cccc(-c3ccncc3)n12 [Compound 5-1, 5-pyridin-4-yl-2-(2-quinolin-2-ylethyl)[1,2,4]triazolo[4,3-a]pyridin-3(2H)-one] | 8.36 | 8.00 to 10.00 |
